This is an account of results in US8796320B2, “1,3,4-Oxadiazole-2-carboxamide compound” (General Incorporated Association Pharma Valley Project …, priority 2009, dated 2014).

One assay relates to STAT3. The assay can be described thus: STAT3 transcription inhibition test (reporter gene method). Conditions: compound at 100 μM, STAT3 reporter HeLa stable cell line, oncostatin M 10 ng/mL, 4 hours; for inhibition at 100 µM: Homo sapiens, read-out: STAT3 transcription inhibitory activity (%). The format is cell-based. The method, then:
The inhibition of STAT3 transcription was evaluated by using STAT3 reporter HeLa stable cell line (Panomics Inc., catalog No. RC0003), a cell line for the reporter gene method, and performing the following method according to the appendix included therein.
STAT3, reporter HeLa stable cell line subcultured and maintained in a Dulbecco's modified Eagle's medium (DMEM) containing 10% fetal bovine serum, 100 units/mL penicillin, and 100 μg/mL streptomycin was inoculated at a concentration of 40000 cells/well to a 96-well plate (white) and attached to the plate by overnight incubation at 37° C. under 5% CO2. After addition of each evaluation compound adjusted to various concentrations (adjusted with a DMSO solution), the cells were precultured for 1 hour. Then, oncostatin M for activating STAT3 was added at a final concentration 10 ng/mL, and the cells were further cultured at 37° C. under 5% CO2 for 4 hours. Luciferase activity derived from the cells was determined using Steady-Glo Luciferase Assay System (Promega Corp.), and STAT3 transcriptional activity scores were calculated according to the following formula: STAT3 transcriptional activity score (%)=100×(Lchem−L0)/(LDMSO−L0) • L0: luminescence intensity obtained without stimulation with oncostatin M • Lchem: luminescence intensity obtained by the addition of a test sample • LDMSO: luminescence intensity obtained by the addition of only a solvent for dissolving a test sample
The test results were indicated in the rate of inhibition of STAT3 transcription by each compound at a concentration of 100 μM.
(In general: In a reporter assay the amount or activity of a reporter protein is the signal.)

A further assay relates to MDA-MB-468. The assay can be described thus: MDA-MB-468 cell growth inhibitory activity. The format is cell-based. To be noted: Homo sapiens; compound at 20 μM; MDA-MB-468, 72 hours. Here is the method:
MDA-MB-468 diluted with phenol red-free DMEM/F-12 (GIBCO; 10% FBS, 20 units/ml penicillin/streptomycin) was inoculated at a concentration of 2000 cells/well to a 96-well plate (Greiner Bio-One) and cultured overnight at 37° C. in the presence of 5% CO2. Then, a test sample solution (containing 2 (v/v)% DMSO) adjusted to 10 μM was added thereto at a concentration of 10 μL/well and contacted with the cells at 37° C. for 72 hours in the presence of 5% CO2. Each well was washed three times with a medium. Then, after addition of 100 μL/well of a medium and 20 μL/well of CellTiter 96 AQueous, One Solution Reagent (Promega Corp.), the cells were incubated at 37° C. for 2 hours in the presence of 5% CO2. Absorbance at 495 nm was measured using Multiplate reader (Molecular Devices, Inc.), and the rate of inhibition of cell growth was calculated according to the following formula: Rate of inhibition of cell growth (%)=100−100×(Abschem−bkgd)/(AbsDMSO−bkgd) • Abschem: absorbance obtained by the addition of a test sample • AbsDMSO: absorbance obtained by the addition of only a solvent for test sample dissolution • bkgd: absorbance obtained by the addition of CellTiter 96 AQueous One Solution Reagent to a medium for cell culture
The test results were indicated in the rate of inhibition of cell growth by each compound at a concentration of 20 μM.

With `O=C(Nc1nnc(-c2ccco2)o1)c1cccc(-c2ccccc2)c1` [Compound Ia-1, N-[5-(2-Furyl)-1,3,4-oxadiazol-2-yl]-3-biphenylcarboxamide], the inhibition at 100 µM in the assay with STAT3 came out at 60%.

Take `O=C(Nc1nnc(-c2ccco2)o1)c1cccc(-c2cccc([N+](=O)[O-])c2)c1` [Compound Ia-5, N-[5-(2-Furyl)-1,3,4-oxadiazol-2-yl]-3′-nitro-3-biphenylcarboxamide]: the inhibition at 100 µM in the assay with STAT3 was 98%. Also, the inhibition at 20 µM with MDA-MB-468 is 88%.

Consider `O=C(Nc1nnc(-c2ccco2)o1)c1cccc(-c2ccc(F)cc2)c1` [Compound Ia-10, 4′-Fluoro-N-[5-(2-furyl)-1,3,4-oxadiazol-2-yl]-3-biphenylcarboxamide], for which the inhibition at 100 µM with STAT3 stood at 97%.

For `Cc1ccc(-c2cccc(C(=O)Nc3nnc(-c4ccco4)o3)c2)cc1` [Compound Ia-12, N-[5-(2-Furyl)-1,3,4-oxadiazol-2-yl]-4′-methyl-3-biphenylcarboxamide], the inhibition at 100 µM in the assay with STAT3 came out at 83%. In addition, the inhibition at 20 µM in the assay on MDA-MB-468 was found to be 61%.

With `COc1ccc(-c2cccc(C(=O)Nc3nnc(-c4ccco4)o3)c2)cc1` [Compound Ia-16, N-[5-(2-Furyl)-1,3,4-oxadiazol-2-yl]-4′-methoxy-3-biphenylcarboxamide], the inhibition at 100 µM in the assay on STAT3 was found to be 57%.

Consider `O=C(Nc1nnc(-c2ccco2)o1)c1cccc(-c2ccc(C(=O)c3ccccc3)cc2)c1` [Compound Ia-19, 4′-Benzoyl-N-[5-(2-furyl)-1,3,4-oxadiazol-2-yl]-3-biphenylcarboxamide], for which the inhibition at 100 µM in the assay with STAT3 was 55%. For the same compound, the inhibition at 20 µM with MDA-MB-468 was 94%.

Turning to `O=C(Nc1nnc(-c2ccco2)o1)c1cccc(-c2ccc([N+](=O)[O-])cc2)c1` [Compound Ia-24, N-[5-(2-Furyl)-1,3,4-oxadiazol-2-yl]-4′-nitro-3-biphenylcarboxamide], the inhibition at 100 µM with STAT3 is 94%. Moreover, the inhibition at 20 µM in the assay on MDA-MB-468 was found to be 97%.

Consider `Cc1cc(C#N)ccc1-c1cccc(C(=O)Nc2nnc(-c3ccco3)o2)c1` [Compound Ia-29, 4′-Cyano-N-[5-(2-furyl)-1,3,4-oxadiazol-2-yl]-2′-methyl-3-biphenylcarboxamide], for which, in the assay on STAT3, the inhibition at 100 µM came to 81%. The compound also returned an inhibition at 20 µM with MDA-MB-468 of 87%.

On to `O=C(Nc1nnc(-c2ccco2)o1)c1cccc(-c2ccc3ccccc3c2)c1` [Compound Ia-33, N-[5-(2-Furyl)-1,3,4-oxadiazol-2-yl]-3-(2-naphthyl)benzenecarboxamide], for which the inhibition at 100 µM with STAT3 was found to be 90%. The same compound came in with an inhibition at 20 µM in the assay with MDA-MB-468 of 98%.

With `Cc1ccc(-c2cccc(C(=O)Nc3nnc(-c4ccco4)o3)c2)o1` [Compound Ia-34, N-[5-(2-Furyl)-1,3,4-oxadiazol-2-yl]-3-(5-methyl-2-furyl)benzenecarboxamide], in the assay with STAT3, the inhibition at 100 µM was 78%.

`O=C(Nc1nnc(-c2ccco2)o1)c1cccc(-c2ccc3c(c2)OCO3)c1` [Compound Ia-42, N-[5-(2-Furyl)-1,3,4-oxadiazol-2-yl]-3-(3,4-methylenedioxyphenyl)benzenecarboxamide]: the inhibition at 100 µM in the assay on STAT3 stood at 88%.

`O=C(Nc1nnc(-c2ccco2)o1)c1cccc(-c2ccc3sccc3c2)c1` [Compound Ia-47, 3-(5-Benzothienyl)-N-[5-(2-furyl)-1,3,4-oxadiazol-2-yl]benzenecarboxamide]: the inhibition at 100 µM with STAT3 turned out to be 58%. The compound further came in with an inhibition at 20 µM in the assay on MDA-MB-468 of 53%.

As to `Cn1ccc2cc(-c3cc(F)cc(C(=O)Nc4nnc(-c5ccco5)o4)c3)ccc21` [Compound Ia-52, 5-Fluoro-N-[5-(2-furyl)-1,3,4-oxadiazol-2-yl]-3-(1-methyl-5-indolyl)benzenecarboxamide], in the assay on STAT3, the inhibition at 100 µM was determined as 71%. Besides, the inhibition at 20 µM in the assay on MDA-MB-468 is 91%.

`O=C(Nc1nnc(-c2ccco2)o1)c1cc(-c2ccc(Cl)cc2)nc(-c2ccc(Br)cc2)c1` [Compound Ia-56, 2-(4-Bromophenyl)-6-(4-chlorophenyl)-N-[5-(2-furyl)-1,3,4-oxadiazol-2-yl]-4-pyridinecarboxamide]: the inhibition at 100 µM in the assay with STAT3 amounted to 87%. In the assay on MDA-MB-468, this compound had an inhibition at 20 µM of 61%.

`C[Si](C)(C)c1ccc(-c2cccc(C(=O)Nc3nnc(-c4ccco4)o3)c2)cc1` [Compound Ia-62, N-[5-(2-Furyl)-1,3,4-oxadiazol-2-yl]-4′-trimethylsilyl-3-biphenylcarboxamide]: the inhibition at 100 µM in the assay with STAT3 is 76%. The same compound displayed an inhibition at 20 µM in the assay on MDA-MB-468 of 71%.

`O=C(Nc1nnc(-c2ccco2)o1)c1cccc(-c2ccc(Oc3ccccc3)cc2)c1` [Compound Ia-66, N-[5-(2-Furyl)-1,3,4-oxadiazol-2-yl]-4′-phenoxy-3-biphenylcarboxamide]: the inhibition at 100 µM with STAT3 is 58%. In the assay on MDA-MB-468, this compound displayed an inhibition at 20 µM of 59%.

On to `COC(=O)c1ccc(-c2cccc(C(=O)Nc3nnc(-c4ccco4)o3)c2)cc1` [Compound Ia-69, N-[5-(2-Furyl)-1,3,4-oxadiazol-2-yl]-4′-methoxycarbonyl-3-biphenylcarboxamide], for which the inhibition at 100 µM in the assay on STAT3 turned out to be 53%. Further, in the assay on MDA-MB-468, the inhibition at 20 µM was 69%.

Regarding `O=C(Nc1nnc(-c2ccco2)o1)c1cccc(-c2ccc(-c3ccc(Cl)cc3)cc2)c1` [Compound Ia-77, 4″-Chloro-N-[5-(2-furyl)-1,3,4-oxadiazol-2-yl]-3-(p-terphenyl)carboxamide], the inhibition at 100 µM with STAT3 is 80%. Further, the inhibition at 20 µM in the assay with MDA-MB-468 was found to be 76%.

`O=C(Nc1nnc(-c2ccco2)o1)c1cccc(-c2ccc(CCN3CCOCC3)cc2)c1` [Compound Ia-90, N-[5-(2-Furyl)-1,3,4-oxadiazol-2-yl]-4′-(2-morpholinoethyl)-3-biphenylcarboxamide]: the inhibition at 100 µM in the assay with STAT3 amounted to 97%.

For the compound `O=C(Nc1nnc(-c2ccco2)o1)c1ccc(-c2cccc(Cl)c2)o1` [Compound Ic-4, 5-(3-Chlorophenyl)-N-[5-(2-furyl)-1,3,4-oxadiazol-2-yl]-2-furancarboxamide], the inhibition at 100 µM in the assay with STAT3 came out at 81%.

For `CCOC(=O)c1ccc(-c2ccc(C(=O)Nc3nnc(-c4ccco4)o3)o2)cc1` [Compound Ic-12, 5-(4-Ethoxycarbonylphenyl)-N-[5-(2-furyl)-1,3,4-oxadiazol-2-yl]-2-furancarboxamide], the inhibition at 100 µM in the assay on STAT3 stood at 73%.

`O=C(Nc1nnc(-c2ccco2)o1)c1ccc(-c2ccc([N+](=O)[O-])cc2Cl)o1` [Compound Ic-14, 5-(2-Chloro-4-nitrophenyl)-N-[5-(2-furyl)-1,3,4-oxadiazol-2-yl]-2-furancarboxamide]: the inhibition at 100 µM in the assay with STAT3 amounted to 51%.

As to `O=C(Nc1nnc(-c2ccco2)o1)c1ccc(-c2cc([N+](=O)[O-])ccc2Cl)o1` [Compound Ic-19, 5-(2-Chloro-5-nitrophenyl)-N-[5-(2-furyl)-1,3,4-oxadiazol-2-yl]-2-furancarboxamide], the inhibition at 100 µM with STAT3 is 56%.

For the compound `O=C(Nc1nnc(-c2ccco2)o1)c1ccc(-c2cc(Cl)cc(Cl)c2)o1` [Compound Ic-21, 5-(3,5-Dichlorophenyl)-N-[5-(2-furyl)-1,3,4-oxadiazol-2-yl]-2-furancarboxamide], in the assay on STAT3, the inhibition at 100 µM worked out at 64%.

Regarding `Cc1oc(-c2ccccc2)cc1C(=O)Nc1nnc(-c2ccco2)o1` [Compound Ic-22, N-[5-(2-Furyl)-1,3,4-oxadiazol-2-yl]-2-methyl-5-phenyl-3-furancarboxamide], the inhibition at 100 µM in the assay on STAT3 was 65%.

Regarding `O=C(Nc1nnc(-c2ccco2)o1)c1nc(-c2ccc(F)cc2)n2c1CCCCC2` [Compound Ic-26], in the assay on STAT3, the “STAT3 transcription inhibitory activity (%)” value amounted to 58%.
